Laboratory results reported in ChEMBL document CHEMBL1130598, “Pyrroles and other heterocycles as inhibitors of p38 kinase” (Bioorg Med Chem Lett, 1998).

Experiments:
[1] = target: Mitogen-activated protein kinase 14 (Rattus norvegicus, UniProt P70618); assay: Inhibitory potency evaluated against rat p38 kinase
[2] = species on record: Rattus norvegicus; assay: Inhibition of secondary paw swelling in rat adjuvant arthritis model […]; assay type: functional
[3] = target: MAP kinase p38 (Homo sapiens) (UniProt O15264+Q15759+Q16539+P53778); assay: Inhibition of p38 MAP kinase; assay type: protein assay
[4] = species on record: Rattus norvegicus; assay: Inhibition of secondary paw swelling in rat adjuvant arthritis model; assay type: functional

Mitogen-activated protein kinase 14, sequence (P70618 whole entry): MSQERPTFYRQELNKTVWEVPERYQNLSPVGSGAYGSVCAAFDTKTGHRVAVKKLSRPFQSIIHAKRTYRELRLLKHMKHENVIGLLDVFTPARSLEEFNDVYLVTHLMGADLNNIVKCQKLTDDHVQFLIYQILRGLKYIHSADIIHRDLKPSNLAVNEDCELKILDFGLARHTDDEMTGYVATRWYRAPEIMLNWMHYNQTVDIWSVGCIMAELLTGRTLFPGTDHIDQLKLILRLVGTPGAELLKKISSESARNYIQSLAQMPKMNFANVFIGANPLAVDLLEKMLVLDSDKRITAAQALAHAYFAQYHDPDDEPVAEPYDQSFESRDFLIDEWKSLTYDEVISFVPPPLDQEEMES

| SMILES | IC50 [1] | other results |
| --- | --- | --- |
| O=C(CCN1CCCCC1)Nc1ccc(-c2cc(-c3ccncc3)c(-c3ccccc3)[nH]2)cc1 | 390 nM | – |
| Clc1ccc(-c2[nH]c(-c3ccccc3)cc2-c2ccncc2)cc1Cl | 30 nM | – |
| O=[N+]([O-])c1cccc(-c2cc(-c3ccncc3)c(-c3ccccc3)[nH]2)c1 | 53 nM | – |
| Fc1ccc(-c2cc(-c3ccncc3)c(-c3ccc(F)cc3)[nH]2)cc1 | 60 nM | – |
| COc1ccc(-c2cc(-c3ccncc3)c(-c3ccc(F)cc3)[nH]2)cc1 | 60 nM | – |
| Oc1c(-c2ccncc2)c(-c2ccc(F)cc2)nn1-c1ccc(Cl)cc1 | 500 nM | Inhibition [2]: 43% |
| Fc1ccc(-c2[nH]c(-c3ccccc3)cc2-c2ccccc2)cc1 | – | inhibition [3]: 79% |
| Fc1ccc(-c2[nH]c(-c3ccc(Br)cc3)cc2-c2ccncc2)cc1 | 100 nM | – |
| Nc1ccc(-c2cc(-c3ccncc3)c(-c3ccccc3)[nH]2)cc1 | 28 nM | – |
| COc1ccc(OC)c(-c2cc(-c3ccncc3)c(-c3ccc(F)cc3)[nH]2)c1 | 1700 nM | – |
| CCOC(=O)c1ccc(-c2cc(-c3ccncc3)c(-c3ccccc3)[nH]2)cc1 | 130 nM | – |
| C[S+]([O-])c1ccc(-c2cc(-c3ccnc4ccccc34)c(-c3ccc(F)cc3)[nH]2)cc1 (centres undefined) | 114 nM | – |
| c1ccc(-c2cc(-c3ccncc3)c(-c3ccncc3)[nH]2)cc1 | 1220 nM | – |
| c1ccc(-c2cc(-c3ccncc3)c(-c3cccs3)[nH]2)cc1 | 120 nM | – |
| Fc1ccc(-c2[nH]c(-c3ccccc3)cc2-c2ccncn2)cc1 | 710 nM | – |
| COc1ccc(OC)c(-c2cc(-c3ccncc3)c(-c3ccccc3)[nH]2)c1 | 5000 nM | – |
| O=c1c(-c2ccc(F)cc2)c(-c2ccncc2)[nH]n1-c1ccc(Cl)cc1 | 35 nM | – |
| COc1ccc2c(c1)c(CC(=O)O)c(C)n2C(=O)c1ccc(Cl)cc1 [INDOMETHACIN] | – | ID50 [4]: 1 mg kg-1 b.i.d. |
| O=C(NCCN1CCCCC1)c1ccc(-c2cc(-c3ccncc3)c(-c3ccccc3)[nH]2)cc1 | 97 nM | – |
| Clc1ccc(-c2cc(-c3ccncc3)c(-c3ccccc3)[nH]2)cc1 | 510 nM | – |
| Oc1ccc(-c2[nH]c(-c3ccccc3)cc2-c2ccncc2)cc1 | 2400 nM | – |
| O=C(O)c1ccc(-c2cc(-c3ccncc3)c(-c3ccccc3)[nH]2)cc1 | 14 nM | – |
| Fc1cccc(-c2cc(-c3ccncc3)c(-c3ccccc3)[nH]2)c1 | 42 nM | – |
| O=[N+]([O-])c1ccc(-c2cc(-c3ccncc3)c(-c3ccccc3)[nH]2)cc1 | 6.1 nM | – |
| N#Cc1cccc(-c2[nH]c(-c3ccccc3)cc2-c2ccncc2)c1 | 53 nM | – |
| Cc1cc(-c2cc(-c3ccc([S+](C)[O-])cc3)[nH]c2-c2ccc(F)cc2)ccn1 (centres undefined) | 6 nM | – |
| Fc1ccc(-c2nc(-c3ccc(Cl)cc3)[nH]c2-c2ccncc2)cc1 | 80 nM | – |
| c1ccc(-c2cc(-c3ccncc3)c(-c3ccccc3)[nH]2)cc1 | 17 nM | – |
